“Also recorded” adds a separate entry of the source. Where two headings read alike, the source gives them in different places.
Key:
PAD4 [1] = target: T1, PAD4 (Homo sapiens, UniProt Q9UM07); assay: Standard PAD4 assay (citrulline formation from BAEE), IC50 studies; type: biochemical
T1 construct: made in house
Text: Reactions were quenched by flash freezing in liquid N2. The amount of Cit produced was then quantified according to methods known in the art. […] Inhibition Studies.

PAD4 [2] = target: T1, PAD4; assay: ABPP-based inhibitor screen: competition with RFA for labelling of PAD4, gel fluorescence; type: binding; conditions: compound 2.5 mM, RFA 10 μM, PAD4 2 μM, 30 min at 37° C.
Description: Very generally, potential inhibitor compounds are incubated individually with PAD4 in the presence of RFA for 30 min at 37° C.; at which point the reactions are quenched with SDS-PAGE loading dye and the mixtures are run on an SDS-PAGE gel. The amount of fluorescent PAD4 can then be quantified using a molecular imaging system. PAD4 inhibitors are readily identified by a decrease in fluorescence intensity.
RFA (10 μM final) and a particular compound from the library (2.5 mM final) were pre-incubated in Screening Buffer (500 μM TCEP, 10 mM CaCl2, 100 mM HEPES 7.6, 50 mM NaCl) for 10 min at 37° C. PAD4 (2 μM final) was then added to this mixture and incubated for 30 min at 37° C. The reaction was quenched with 6×SDS-PAGE Dye, incubated at 95° C. for 10 min, and then loaded onto a 12% SDS-PAGE gel. After electrophoresis, the gel was placed in destaining buffer (10% glacial acetic acid, 45% methanol, 45% ddH2O) until the fluorescence was measured using a fluorescence based molecular imaging station (Kodak Image Station 2000MM; excitation at 535 nm, emission at 600 nm). The protein gel was then stained and destained to ensure equal protein loading. A sample without a potential inhibitor was used as a control.

PAD4 [3] = target: T1, PAD4; assay: Inhibition studies: kinetic analysis of PAD4 activity versus BAEE concentration; type: biochemical; conditions: for kinetic mechanism of PAD4 inhibition: Lineweaver-Burk plots; for Ki: BAEE 0-20 mM, 0.2 μM PAD4
Description: PAD4 activity was measured as a function of substrate concentration in the absence and presence of increasing concentrations of each inhibitor.
Briefly, the compounds were incubated in Reaction Buffer containing various concentrations of BAEE (0-20 mM) for 10 minutes at 37° C. PAD4 (0.2 μM) was then added to initiate the reaction and allowed to proceed for 6 additional minutes. Reactions were then quenched by flash freezing in liquid N2 and the amount of Cit produced was quantified.
[formula] using GraFit version 5.0.11.

PAD4 [4] = target: T1, PAD4; assay: as above; type: biochemical; conditions: product formation linear with respect to time
[5] = 1 mM BAEE, 0.2 μM PAD4, 15 min pre-incubation at 37° C.

T1 sequence (Q9UM07 whole entry): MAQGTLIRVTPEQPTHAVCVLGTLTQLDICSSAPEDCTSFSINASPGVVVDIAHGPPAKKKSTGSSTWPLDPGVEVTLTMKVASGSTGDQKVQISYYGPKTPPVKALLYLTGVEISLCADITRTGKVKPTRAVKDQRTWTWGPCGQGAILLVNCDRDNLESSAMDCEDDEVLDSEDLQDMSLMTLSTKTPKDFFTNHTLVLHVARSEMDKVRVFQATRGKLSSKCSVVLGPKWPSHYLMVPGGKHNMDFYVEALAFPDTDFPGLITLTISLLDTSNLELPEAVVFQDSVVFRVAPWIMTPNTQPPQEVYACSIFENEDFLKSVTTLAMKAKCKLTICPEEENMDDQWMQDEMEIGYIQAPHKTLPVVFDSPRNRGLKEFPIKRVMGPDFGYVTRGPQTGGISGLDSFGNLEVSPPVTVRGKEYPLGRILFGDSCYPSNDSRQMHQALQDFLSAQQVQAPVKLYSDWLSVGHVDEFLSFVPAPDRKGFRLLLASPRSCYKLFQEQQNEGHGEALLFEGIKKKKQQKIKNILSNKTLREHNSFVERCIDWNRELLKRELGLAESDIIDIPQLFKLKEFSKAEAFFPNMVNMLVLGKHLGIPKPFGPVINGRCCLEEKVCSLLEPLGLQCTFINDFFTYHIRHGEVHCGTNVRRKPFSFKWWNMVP

Molecule	IC50 (PAD4 [1]; [5])	decrease in fluorescence intensity of PAD4 (PAD4 [2])	other results
Nc1ccc(O)c(C(=O)O)c1 [5-Amino-salicylic Acid]	> 10000 µM	little to no decrease	
Leflunomide	2400 ± 800 µM	Intermediate effects	
Nc1ccc(S(=O)(=O)Nc2ccccn2)cc1 [Sulfapyridine]	> 10000 µM	little to no decrease	
CN(C)[C@H]1C(O)=C(C(N)=O)C(=O)C2(O)C(O)=C3C(=O)c4c(O)cccc4C(C)(O)C3CC12 (stereo partly drawn) [Tetracycline]	100 ± 10 µM		
Cn1cnc([N+](=O)[O-])c1Sc1ncnc2nc[nH]c12 [Azathioprine]	> 7500 µM		
COc1cc(Cc2cnc(N)nc2N)cc(OC)c1OC [Trimethoprim]	7500 ± 200 µM	little to no decrease	
CN(Cc1cnc2nc(N)nc(N)c2n1)c1ccc(C(=O)N[C@@H](CCC(=O)O)C(=O)O)cc1 [Methotrexate]	> 10000 µM	Intermediate effects	
Azithromycin	> 10000 µM	little to no decrease	
[H]/N=C(/N)N[C@H]1[C@H](O)[C@@H](O)[C@H](O[C@@H]2O[C@@H](C)[C@](O)(C=O)[C@H]2O[C@@H]2O[C@@H](CO)[C@H](O)[C@@H](O)[C@@H]2NC)[C@@H](N/C(N)=N\[H])[C@@H]1O [Streptomycin]		strong decrease	kinetic mechanism of PAD4 inhibition (PAD4 [3]): competitive inhibitor; reversibility of PAD4 inhibition (PAD4 [4]): reversible; deimination of the compound by PAD4 (substrate) (PAD4 [1]): not deiminated
Sulfamethox-azole	> 10000 µM	little to no decrease	
CN(C)[C@H]1C(O)=C(C(N)=O)C(=O)C2(O)C(O)=C3C(=O)c4c(O)ccc(Cl)c4C(C)(O)C3CC12 (stereo partly drawn) [Chlortetracycline]			kinetic mechanism of PAD4 inhibition (PAD4 [3]): mixed inhibition; also recorded: mixed inhibitors; reversibility of PAD4 inhibition (PAD4 [4]): reversible
CCCC1CC(C(=O)NC(C(C)Cl)C2OC(SC)C(O)C(O)C2O)N(C)C1 (stereo not drawn) [Clindamycin]		Intermediate effects	
CN(C)c1ccc(O)c2c1C[C@H]1C[C@H]3[C@H](N(C)C)C(O)=C(C(N)=O)C(=O)[C@@]3(O)C(O)=C1C2=O [Minocycline]	620 µM	strong decrease	Ki (PAD4 [3]; read-out: Kii): 630 ± 150 µM; Ki (PAD4 [3]; read-out: Kis): 180 ± 60 µM; kinetic mechanism of PAD4 inhibition (PAD4 [3]): mixed type inhibitor; also recorded: mixed inhibitors; reversibility of PAD4 inhibition (PAD4 [4]): reversible; IC50 (PAD4 [1]; standard assay): 620 µM

Source: patent publication US8007996B2, “Methods to identify protein arginine deiminase 4 inhibitors” (University of South Carolina, priority 2007, dated 2011)
